# Data published in ChEMBL document CHEMBL1944561, “Discovery and SAR exploration of a novel series of imidazo[4,5-b]pyrazin-2-ones as potent and selective mTOR kinase inhibitors” (Bioorg Med Chem Lett, 2011).
# How the values were obtained:
# [1] = target: Phosphatidylinositol 4,5-bisphosphate 3-kinase catalytic subunit alpha isoform (Homo sapiens, UniProt P42336); assay: Inhibition of PI3Kalpha
# [2] = target: T1, Serine/threonine-protein kinase Chk1 (Homo sapiens) (UniProt O14757); assay: Inhibition of CHK1 assessed as activity remaining at 10 uM
# T1 sequence (whole entry): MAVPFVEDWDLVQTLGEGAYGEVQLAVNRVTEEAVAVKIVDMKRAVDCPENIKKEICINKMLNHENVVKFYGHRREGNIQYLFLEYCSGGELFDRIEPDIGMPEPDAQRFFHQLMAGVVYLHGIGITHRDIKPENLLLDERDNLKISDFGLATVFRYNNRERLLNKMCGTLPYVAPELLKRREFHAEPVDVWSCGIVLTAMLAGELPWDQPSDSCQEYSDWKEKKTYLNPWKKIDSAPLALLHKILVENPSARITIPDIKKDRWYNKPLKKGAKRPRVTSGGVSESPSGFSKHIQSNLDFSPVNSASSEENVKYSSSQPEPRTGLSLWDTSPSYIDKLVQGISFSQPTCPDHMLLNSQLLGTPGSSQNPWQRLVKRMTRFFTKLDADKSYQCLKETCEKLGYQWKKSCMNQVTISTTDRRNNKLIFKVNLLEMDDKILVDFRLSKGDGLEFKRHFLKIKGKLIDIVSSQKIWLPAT
# [3] = target: RAF proto-oncogene serine/threonine-protein kinase (Homo sapiens) (UniProt P04049); assay: Inhibition of cRaf assessed as activity remaining at 10 uM
# [4] = target: T2, Ephrin type-B receptor 4 (Homo sapiens) (UniProt P54760); assay: Inhibition of EphB4 assessed as activity remaining at 10 uM
# T2 sequence (whole entry): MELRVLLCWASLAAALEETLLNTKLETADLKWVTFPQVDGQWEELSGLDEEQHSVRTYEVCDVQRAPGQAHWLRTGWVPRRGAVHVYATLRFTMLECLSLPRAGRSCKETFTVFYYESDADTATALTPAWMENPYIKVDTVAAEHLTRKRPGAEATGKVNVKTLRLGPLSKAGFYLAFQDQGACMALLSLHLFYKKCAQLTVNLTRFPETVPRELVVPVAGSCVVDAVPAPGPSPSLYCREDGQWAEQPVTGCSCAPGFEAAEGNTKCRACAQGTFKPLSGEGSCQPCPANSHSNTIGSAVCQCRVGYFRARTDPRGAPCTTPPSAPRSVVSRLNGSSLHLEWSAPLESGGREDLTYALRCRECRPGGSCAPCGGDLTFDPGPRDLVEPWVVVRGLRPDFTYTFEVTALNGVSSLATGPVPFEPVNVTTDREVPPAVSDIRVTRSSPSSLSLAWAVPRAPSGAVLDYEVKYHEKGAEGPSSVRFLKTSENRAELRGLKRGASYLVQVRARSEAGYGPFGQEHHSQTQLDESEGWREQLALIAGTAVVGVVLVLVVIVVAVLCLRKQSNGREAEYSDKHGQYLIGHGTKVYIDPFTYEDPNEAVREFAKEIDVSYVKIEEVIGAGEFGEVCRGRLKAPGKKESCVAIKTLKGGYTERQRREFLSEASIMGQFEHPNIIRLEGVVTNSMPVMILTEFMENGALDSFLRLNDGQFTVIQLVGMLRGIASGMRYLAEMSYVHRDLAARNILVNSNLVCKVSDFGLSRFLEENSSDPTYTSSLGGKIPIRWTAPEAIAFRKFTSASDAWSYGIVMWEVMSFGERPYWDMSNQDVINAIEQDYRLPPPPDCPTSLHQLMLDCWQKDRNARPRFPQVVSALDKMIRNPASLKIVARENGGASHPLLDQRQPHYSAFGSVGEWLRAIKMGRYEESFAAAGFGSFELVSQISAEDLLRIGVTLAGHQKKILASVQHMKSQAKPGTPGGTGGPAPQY
# [5] = target: Tyrosine-protein kinase Fyn (Homo sapiens) (UniProt P06241); assay: Inhibition of Fyn assessed as activity remaining at 10 uM
# [6] = target: T3, Inhibitor of nuclear factor kappa-B kinase subunit beta (Homo sapiens) (UniProt O14920); assay: Inhibition of IKK-beta assessed as activity remaining at 10 uM
# T3 sequence (whole entry): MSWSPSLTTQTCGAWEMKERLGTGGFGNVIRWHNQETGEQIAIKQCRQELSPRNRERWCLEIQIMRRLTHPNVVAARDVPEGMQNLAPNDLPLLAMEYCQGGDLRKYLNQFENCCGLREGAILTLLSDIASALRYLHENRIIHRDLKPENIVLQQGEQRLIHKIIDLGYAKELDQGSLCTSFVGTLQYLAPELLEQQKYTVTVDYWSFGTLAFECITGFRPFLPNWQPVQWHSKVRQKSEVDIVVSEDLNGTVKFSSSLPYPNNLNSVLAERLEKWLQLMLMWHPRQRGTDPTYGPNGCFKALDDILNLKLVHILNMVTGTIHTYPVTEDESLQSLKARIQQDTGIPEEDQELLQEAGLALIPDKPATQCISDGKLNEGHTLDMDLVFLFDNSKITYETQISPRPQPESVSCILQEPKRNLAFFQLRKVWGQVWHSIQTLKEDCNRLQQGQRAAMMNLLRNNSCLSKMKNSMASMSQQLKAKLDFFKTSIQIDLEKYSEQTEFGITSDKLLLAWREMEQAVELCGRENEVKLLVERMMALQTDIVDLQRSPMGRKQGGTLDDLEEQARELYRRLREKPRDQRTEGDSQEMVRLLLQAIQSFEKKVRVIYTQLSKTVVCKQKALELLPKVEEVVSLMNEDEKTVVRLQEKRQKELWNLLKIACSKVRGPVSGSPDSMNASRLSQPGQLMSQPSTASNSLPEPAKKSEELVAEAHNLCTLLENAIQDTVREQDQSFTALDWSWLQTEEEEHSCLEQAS
# [7] = target: Dual specificity mitogen-activated protein kinase kinase 1 (Homo sapiens) (UniProt Q02750); assay: Inhibition of MEK1 assessed as activity remaining at 10 uM
# [8] = target: Serine/threonine-protein kinase PAK 4 (Homo sapiens) (UniProt O96013); assay: Inhibition of PAK4 assessed as activity remaining at 10 uM
# [9] = Inhibition of PKA assessed as activity remaining at 10 uM
# [10] = target: Serine/threonine-protein kinase PLK3 (Homo sapiens) (UniProt Q9H4B4); assay: Inhibition of Plk3 assessed as activity remaining at 10 uM
# [11] = target: Ribosomal protein S6 kinase alpha-1 (Homo sapiens) (UniProt Q15418); assay: Inhibition of Rsk1 assessed as activity remaining at 10 uM
# [12] = target: High affinity nerve growth factor receptor (Homo sapiens) (UniProt P04629); assay: Inhibition of TrkA assessed as activity remaining at 10 uM
# [13] = target: 3-phosphoinositide-dependent protein kinase 1 (Homo sapiens) (UniProt O15530); assay: Inhibition of PDK1 assessed as activity remaining at 10 uM
# Sequence of 3-phosphoinositide-dependent protein kinase 1 (Homo sapiens) (O15530 whole entry, looked up): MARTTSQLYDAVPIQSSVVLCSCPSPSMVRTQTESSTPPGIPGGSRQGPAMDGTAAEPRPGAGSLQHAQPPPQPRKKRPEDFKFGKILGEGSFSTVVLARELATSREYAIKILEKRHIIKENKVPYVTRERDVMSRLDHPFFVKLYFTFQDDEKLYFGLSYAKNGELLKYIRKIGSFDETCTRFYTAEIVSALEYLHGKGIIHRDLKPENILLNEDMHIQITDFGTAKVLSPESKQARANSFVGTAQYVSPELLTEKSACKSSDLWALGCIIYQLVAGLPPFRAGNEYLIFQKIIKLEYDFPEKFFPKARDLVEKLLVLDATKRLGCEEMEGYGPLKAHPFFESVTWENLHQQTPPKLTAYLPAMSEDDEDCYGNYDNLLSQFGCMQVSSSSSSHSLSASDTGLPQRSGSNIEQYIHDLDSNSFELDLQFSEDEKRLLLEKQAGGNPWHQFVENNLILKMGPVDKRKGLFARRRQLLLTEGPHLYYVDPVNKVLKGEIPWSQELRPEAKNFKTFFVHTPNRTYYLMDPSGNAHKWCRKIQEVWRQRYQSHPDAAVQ
# Sequence of RAF proto-oncogene serine/threonine-protein kinase (Homo sapiens) (P04049 whole entry): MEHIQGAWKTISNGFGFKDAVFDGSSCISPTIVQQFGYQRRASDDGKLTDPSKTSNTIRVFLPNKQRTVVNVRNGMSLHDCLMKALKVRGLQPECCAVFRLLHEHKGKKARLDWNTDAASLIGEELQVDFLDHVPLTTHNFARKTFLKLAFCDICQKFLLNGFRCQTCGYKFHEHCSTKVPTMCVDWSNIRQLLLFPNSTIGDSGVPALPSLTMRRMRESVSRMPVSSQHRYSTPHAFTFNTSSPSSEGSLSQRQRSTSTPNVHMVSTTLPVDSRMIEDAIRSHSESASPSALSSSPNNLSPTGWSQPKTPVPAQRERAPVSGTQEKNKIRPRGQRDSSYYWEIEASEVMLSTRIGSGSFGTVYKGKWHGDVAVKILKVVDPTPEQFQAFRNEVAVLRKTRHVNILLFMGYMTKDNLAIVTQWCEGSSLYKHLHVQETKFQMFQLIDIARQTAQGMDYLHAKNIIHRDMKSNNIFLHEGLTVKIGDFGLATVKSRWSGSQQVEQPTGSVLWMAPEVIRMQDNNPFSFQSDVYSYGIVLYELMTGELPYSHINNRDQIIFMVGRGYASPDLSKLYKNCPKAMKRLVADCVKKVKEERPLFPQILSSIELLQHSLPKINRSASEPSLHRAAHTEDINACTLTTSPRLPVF
# Sequence of Serine/threonine-protein kinase PLK3 (Homo sapiens) (Q9H4B4 whole entry, looked up): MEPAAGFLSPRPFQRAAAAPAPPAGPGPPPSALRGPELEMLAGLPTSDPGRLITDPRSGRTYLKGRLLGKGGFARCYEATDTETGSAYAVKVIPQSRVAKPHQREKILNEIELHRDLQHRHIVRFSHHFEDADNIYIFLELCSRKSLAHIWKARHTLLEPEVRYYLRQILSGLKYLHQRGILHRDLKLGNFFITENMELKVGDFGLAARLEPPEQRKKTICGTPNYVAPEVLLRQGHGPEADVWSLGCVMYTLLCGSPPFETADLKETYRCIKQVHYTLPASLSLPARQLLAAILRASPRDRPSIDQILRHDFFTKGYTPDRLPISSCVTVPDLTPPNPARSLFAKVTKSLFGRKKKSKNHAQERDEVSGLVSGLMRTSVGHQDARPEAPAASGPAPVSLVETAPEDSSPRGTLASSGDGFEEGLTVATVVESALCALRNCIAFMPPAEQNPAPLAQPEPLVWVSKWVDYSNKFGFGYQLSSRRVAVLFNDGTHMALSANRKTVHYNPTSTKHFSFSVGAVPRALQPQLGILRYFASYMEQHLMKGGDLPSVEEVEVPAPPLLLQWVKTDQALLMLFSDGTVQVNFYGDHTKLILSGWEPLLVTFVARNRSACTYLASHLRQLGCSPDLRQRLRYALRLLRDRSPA
# Sequence of High affinity nerve growth factor receptor (Homo sapiens) (P04629 33-796 limits assumed): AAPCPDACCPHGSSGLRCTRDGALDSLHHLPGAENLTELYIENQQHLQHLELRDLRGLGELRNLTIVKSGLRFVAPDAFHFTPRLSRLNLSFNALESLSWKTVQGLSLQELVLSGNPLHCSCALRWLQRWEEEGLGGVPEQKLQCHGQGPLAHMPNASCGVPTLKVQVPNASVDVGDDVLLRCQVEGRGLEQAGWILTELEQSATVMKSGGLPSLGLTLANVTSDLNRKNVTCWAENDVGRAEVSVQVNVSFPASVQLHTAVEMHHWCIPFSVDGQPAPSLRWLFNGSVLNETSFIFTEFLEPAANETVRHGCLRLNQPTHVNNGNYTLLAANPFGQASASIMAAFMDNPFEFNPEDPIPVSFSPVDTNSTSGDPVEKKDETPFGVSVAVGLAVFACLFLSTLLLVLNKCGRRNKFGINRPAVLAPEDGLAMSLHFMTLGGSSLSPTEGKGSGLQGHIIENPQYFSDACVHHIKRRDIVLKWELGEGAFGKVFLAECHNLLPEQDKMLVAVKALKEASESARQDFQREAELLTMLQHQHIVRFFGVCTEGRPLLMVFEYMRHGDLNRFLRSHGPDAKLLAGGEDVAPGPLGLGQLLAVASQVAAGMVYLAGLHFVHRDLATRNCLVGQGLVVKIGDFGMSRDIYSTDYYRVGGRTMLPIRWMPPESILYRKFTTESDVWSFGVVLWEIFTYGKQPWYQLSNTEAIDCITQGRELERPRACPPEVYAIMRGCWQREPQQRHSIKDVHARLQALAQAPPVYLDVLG
# Sequence of Tyrosine-protein kinase Fyn (Homo sapiens) (P06241 2-537 limits assumed): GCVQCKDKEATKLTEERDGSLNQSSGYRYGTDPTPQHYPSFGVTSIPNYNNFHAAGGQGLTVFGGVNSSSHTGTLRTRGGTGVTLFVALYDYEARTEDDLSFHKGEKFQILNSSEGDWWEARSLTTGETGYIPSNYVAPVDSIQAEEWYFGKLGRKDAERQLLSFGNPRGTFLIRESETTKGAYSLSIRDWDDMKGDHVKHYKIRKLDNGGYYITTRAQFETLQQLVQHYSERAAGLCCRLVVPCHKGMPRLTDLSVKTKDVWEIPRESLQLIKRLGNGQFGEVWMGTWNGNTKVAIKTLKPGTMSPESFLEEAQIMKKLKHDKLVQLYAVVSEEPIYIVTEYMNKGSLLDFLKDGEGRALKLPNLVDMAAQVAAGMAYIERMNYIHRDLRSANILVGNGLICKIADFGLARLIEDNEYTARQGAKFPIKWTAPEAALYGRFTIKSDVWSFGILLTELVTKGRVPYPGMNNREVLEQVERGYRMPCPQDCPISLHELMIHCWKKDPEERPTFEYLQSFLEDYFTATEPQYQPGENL
# Sequence of Ribosomal protein S6 kinase alpha-1 (Homo sapiens) (Q15418 whole entry): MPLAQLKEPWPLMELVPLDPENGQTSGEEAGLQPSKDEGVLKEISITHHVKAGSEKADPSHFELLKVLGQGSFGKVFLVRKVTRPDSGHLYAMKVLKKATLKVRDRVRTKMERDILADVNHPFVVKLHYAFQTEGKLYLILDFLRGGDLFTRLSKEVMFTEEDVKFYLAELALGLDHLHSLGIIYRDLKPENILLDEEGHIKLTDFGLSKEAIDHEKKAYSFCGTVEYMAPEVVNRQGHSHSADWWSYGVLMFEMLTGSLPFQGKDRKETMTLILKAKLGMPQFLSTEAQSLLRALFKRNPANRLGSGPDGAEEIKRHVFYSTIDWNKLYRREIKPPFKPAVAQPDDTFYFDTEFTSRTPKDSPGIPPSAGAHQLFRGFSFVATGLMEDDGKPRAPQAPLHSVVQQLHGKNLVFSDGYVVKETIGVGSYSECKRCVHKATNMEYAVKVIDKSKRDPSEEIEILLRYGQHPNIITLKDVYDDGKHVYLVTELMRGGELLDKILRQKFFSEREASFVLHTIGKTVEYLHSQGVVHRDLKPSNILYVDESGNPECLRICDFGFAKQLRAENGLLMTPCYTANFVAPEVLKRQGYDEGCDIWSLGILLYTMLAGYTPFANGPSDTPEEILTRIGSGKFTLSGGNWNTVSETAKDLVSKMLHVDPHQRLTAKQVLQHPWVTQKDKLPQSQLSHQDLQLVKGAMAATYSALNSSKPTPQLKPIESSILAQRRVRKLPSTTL
# Sequence of Serine/threonine-protein kinase PAK 4 (Homo sapiens) (O96013 whole entry, looked up): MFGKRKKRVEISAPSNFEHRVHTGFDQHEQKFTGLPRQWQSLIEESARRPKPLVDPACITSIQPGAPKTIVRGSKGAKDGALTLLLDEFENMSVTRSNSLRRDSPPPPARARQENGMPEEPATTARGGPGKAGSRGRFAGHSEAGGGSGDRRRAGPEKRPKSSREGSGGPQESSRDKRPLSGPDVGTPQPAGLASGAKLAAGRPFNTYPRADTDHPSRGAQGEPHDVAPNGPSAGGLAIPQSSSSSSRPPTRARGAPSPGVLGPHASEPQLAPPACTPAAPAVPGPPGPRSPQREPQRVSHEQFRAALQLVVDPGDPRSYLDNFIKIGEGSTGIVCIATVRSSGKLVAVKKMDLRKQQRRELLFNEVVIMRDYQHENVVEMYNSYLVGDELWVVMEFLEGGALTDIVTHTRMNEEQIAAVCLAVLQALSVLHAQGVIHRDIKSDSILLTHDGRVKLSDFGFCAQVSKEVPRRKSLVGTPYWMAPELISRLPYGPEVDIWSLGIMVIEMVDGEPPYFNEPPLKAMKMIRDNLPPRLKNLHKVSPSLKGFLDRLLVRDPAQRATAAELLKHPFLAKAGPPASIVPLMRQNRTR
# Sequence of Dual specificity mitogen-activated protein kinase kinase 1 (Homo sapiens) (Q02750 whole entry): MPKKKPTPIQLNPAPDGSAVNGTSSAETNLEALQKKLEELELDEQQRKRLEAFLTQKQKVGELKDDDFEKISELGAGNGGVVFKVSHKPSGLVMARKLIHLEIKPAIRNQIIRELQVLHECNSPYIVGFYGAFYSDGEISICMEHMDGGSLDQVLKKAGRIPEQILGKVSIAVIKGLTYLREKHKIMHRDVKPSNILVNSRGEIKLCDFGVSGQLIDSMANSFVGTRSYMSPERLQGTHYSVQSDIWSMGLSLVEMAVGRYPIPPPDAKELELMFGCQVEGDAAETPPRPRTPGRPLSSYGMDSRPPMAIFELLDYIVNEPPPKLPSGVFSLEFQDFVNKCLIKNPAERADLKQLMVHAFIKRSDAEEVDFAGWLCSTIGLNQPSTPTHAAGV
SMILES,IC50 [1] [µM],Activity [2] [%],Activity [3] [%],Activity [4] [%],Activity [5] [%],Activity [6] [%],Activity [7] [%],Activity [8] [%],Activity [9] [%],Activity [10] [%],Activity [11] [%],Activity [12] [%],Activity [13] [%]
O=c1[nH]c2ncc(-c3ccc(-c4nc[nH]n4)cc3)nc2n1CC1CCOCC1,2.6,97,70,97,102,98,84,87,95,108,93,77,91
O=c1[nH]c2ncc(-c3ccc4[nH]cnc4c3)nc2n1CC1CCCCC1,20.1,88,84,96,67,82,79,81,90,94,74,61,65
CC(C)(O)c1ccc(-c2cnc3[nH]c(=O)n(CC4CCCCC4)c3n2)cc1,21.9,93,87,90,73,91,82,87,95,89,89,86,92
